Test results taken from patent US8901165B2, “Alkoxylated glycerol acetals and their derivatives” (Cognis IP Management GmbH, priority 2009, dated 2014).

Columns and labels:
[1] = Dynamic and quasi-static surface tension, tensiometer SITA science line t60; format: physicochemical; conditions: for Surface Tension at 0.1 Hz: bubble frequency 0.1 Hz (quasi-static); for Surface Tension at 10 Hz: bubble frequency 10 Hz (dynamic)
Source text: Quasi-Static or equilibrium surface tension at an air-liquid interface can be determined by the Du Noüy ring method, the Wilhelmy plate or the like. […] To avoid such problems, a dynamic method is used but the frequency is reduced to 0.1 Hz or less, thus close enough to equilibrium conditions. […] The products therefore fulfill the complex profile as explained above perfectly.
(§1) Foam properties and surface tension of various alkoxylated glycerol acetals were compared with data obtained from conventional fatty alcohol alkoxylates at 0.1 and 0.25% b.w. concentration, respectively. Foam potential was tested with SITA foam tester R-2000, available from SITA Messtechnik GmbH, Gostritzer Str. 61-63, 01217 Dresden, Germany. Dynamic surface tension was determined with the tensiometer SITA science line t60, ibid.

[2] = Foam potential, SITA foam tester R-2000; format: physicochemical; conditions: 0.1% aqueous solution/dispersion
Protocol: as §1

[3] = 0.25% aqueous solution/dispersion
[4] = 0.1% aqueous solution/dispersion

Substance | Surface Tension at 0.1 Hz [1, 3] | Surface Tension at 10 Hz [1, 3] | Foam after 1 min [2] | Foam after 5 min [2] | Surface Tension at 0.1 Hz [1, 4] | Surface Tension at 10 Hz [1, 4]
Decanol + 5EO [Example C4, reference compound] | 26 mN/m | 33 mN/m |  |  |  | 
n-octyl glycerol acetal+4PO+4EO [Example 9] | 32 mN/m | 39 mN/m |  |  |  | 
n-octyl glycerol acetal+4PO+4EO [Example 1] |  |  | 30 mL | 25 mL | 32 mN/m | 44 mN/m
Isodecanol + 6EO [Example C1, reference compound] |  |  | 225 mL | 210 mL | 27 mN/m | 40 mN/m
Isodecanol + 6EO [Example C3, reference compound] | 27 mN/m | 34 mN/m |  |  |  | 
n-decyl glycerol acetal+4PO+4EO [Example 3] |  |  | 120 mL | 110 mL | 31 mN/m | 50 mN/m
n-decyl glycerol acetal+4PO+4EO [Example 2] |  |  | 100 mL | 80 mL | 30 mN/m | 52 mN/m
iso-nonyl glycerol acetal+3PO+3EO [Example 13] | 29 mN/m | 36 mN/m |  |  |  | 
iso-nonyl glycerol acetal+3PO+3EO [Example 5] |  |  | 0 mL | 0 mL | 31 mN/m | 43 mN/m
n-decyl glycerol acetal+4PO+4EO [Example 11] | 31 mN/m | 44 mN/m |  |  |  | 
n-decyl glycerol acetal+4PO+4EO [Example 10] | 32 mN/m | 38 mN/m |  |  |  | 
Decanol + 5EO [Example C2, reference compound] |  |  | 190 mL | 170 mL | 26 mN/m | 40 mN/m
